In patent US20120156230A1, “TREATMENT OF SPINAL CORD INJURY AND TRAUMATIC BRAIN INJURY USING PLACENTAL STEM CELLS” (priority 2010, published 2012):

How the values were obtained:
[1] = target: T1, indoleamine 2,3-dioxygenase (IDO) (Homo sapiens, UniProt P14902); experiment: BTR T cell proliferation assay with IDO blockade; assay type: cell-based; conditions: 256 μM
T1 construct: endogenous in cells; host or cells: PDACs (placental stem cells) co-cultured with T cells in the BTR assay
From the text: To investigate the mechanism of action of PDAC-mediated suppression of T cell proliferation, pharmacological inhibitors or neutralizing antibodies were used to block the activity of prostaglandin E2 (PGE2), inducible nitric oxide synthase (iNOS), transforming growth factor beta (TGF-β), interleukin-10 (IL-10) and IDO in an in vitro T cell proliferation assay (BTR).

T cells (Th1 skewing) = experiment: Th1 skewing culture; assay type: cell-based; conditions: BTR with IL-2, IL-12, anti-IL-4 cocktail
Procedure: To investigate the molecular mechanism of action of PDAC-mediated suppression of Th1 skewing, IDO siRNA was transiently transfected into PDACs by standard techniques. Th1 skewing was carried out as for the BTR reactions (see above) but supplemented with an additional Th1 skewing cytokine cocktail containing IL-2 (200 IU/mL), IL-12 (2 ng/mL) and anti-IL-4 (0.4 μg/ml).

[2] = system: chick chorioallantoic membrane (CAM); experiment: CAM angiogenesis assay using PDACs; assay type: in vivo; conditions: P<0.001, Student's t test
Procedure: Two separate CAM assays were conducted. In the first CAM assay, intact cell pellets from different preparations of PDAC were evaluated. In the second CAM assay, supernatants of different PDAC preparations were evaluated. Fibroblast growth factor (bFGF) was used as a positive control, and MDA-MB-231 human breast cancer cells as a reference, vehicle and medium controls were used as negative controls. The endpoint of the study was to determine the blood vessel densities of all treatment and control groups.
PDACs, prepared as described above and cryopreserved, were used. PDACs were thawed for dosing and the number of cells dosed on the CAM was determined. […]
CAM Assay Procedure: Fresh fertile eggs were incubated for 3 days in a standard egg incubator at 37° C. for 3 days. […] On Day 8, embryos were removed from the incubator and kept at room temperature while blood vessel density was determined under each “O” ring using an image capturing system at a magnification of 100×.
Blood vessel density was measured by an angiogenesis scoring system that used arithmetic numbers 0 to 5, or exponential numbers 1 to 32, to indicate the number of blood vessels present at the treatment sites on the CAM. […] The percent of inhibition at each dosing site was calculated using the score recorded for that site divided by the mean score obtained from control samples for each individual experiment. […]

[3] = system: chick chorioallantoic membrane (CAM); experiment: CAM angiogenesis assay using PDAC supernatants; assay type: in vivo; conditions: supernatant mixed with MATRIGEL 1:1; PDAC supernatants P<0.01, P<0.001, P<0.02; bFGF P<0.001
From the text: Supernatant samples from MDA-MB-231 cells and PDACs were used in a second CAM assay as described above. bFGF and MDA-MB-231 supernatants were used as positive controls, medium and vehicle were used as negative controls.
Study Design: The study included 5 groups with 10 embryos in each group. The design of the study is described in Table 4.
CAM Assay Procedure: The assay procedure was the same as described in section 6.3.1, above. The only difference was that supernatant from each stem cell preparation or from MDA-MB-231 cells was used as test material. For dosing, each supernatant was mixed with MATRIGEL™ (1:1 by volume) and […] of the mixture was dosed to each embryo.

T1 sequence (P14902 whole entry): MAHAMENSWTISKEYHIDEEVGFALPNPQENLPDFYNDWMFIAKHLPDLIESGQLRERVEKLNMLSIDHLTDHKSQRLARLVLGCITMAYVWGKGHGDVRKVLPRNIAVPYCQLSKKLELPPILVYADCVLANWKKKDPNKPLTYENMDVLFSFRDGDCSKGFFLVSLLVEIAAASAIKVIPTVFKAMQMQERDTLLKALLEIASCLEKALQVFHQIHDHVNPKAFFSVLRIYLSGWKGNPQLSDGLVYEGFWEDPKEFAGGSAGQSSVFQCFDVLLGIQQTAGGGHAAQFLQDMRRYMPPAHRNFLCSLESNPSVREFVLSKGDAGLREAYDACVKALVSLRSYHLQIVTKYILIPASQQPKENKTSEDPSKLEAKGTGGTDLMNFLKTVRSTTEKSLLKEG

Row | rescue of T cell proliferation from PDAC-mediated suppression [1] | Compound | rescue of PDAC-mediated suppression of Th1 skewing (T cells (Th1 skewing)) | blood vessel density score versus vehicle control CAMs [2] | blood vessel induction versus vehicle controls [3]
1 | substantially rescued | N[C@@H](Cc1c[nH]c2ccccc12)C(=O)O [L-Trp, L-trptophan] | completely rescued | – | –
2 | – | Cn1cc(C[C@H](N)C(=O)O)c2ccccc21 [1 MT, 1-methyl tryptophan] | completely rescued | – | –
3 | – | bFGF: basic fibroblast growth factor (positive control) | – | statistically significantly higher | potent induction of blood vessel formation
